Measured values from patent US10245229B2, “Pulmonary delivery of mRNA to non-lung target cells” (Shire Human Genetic Therapies, Inc., priority 2012, dated 2019).

Tested on: non-lung cells
Experiment: Comparison of delivery vehicles: luminescence in non-lung cells following pulmonary delivery
Format: in vivo
Conditions: following pulmonary delivery of FFL mRNA with the delivery vehicle

`CCCCCCCC/C=C\CCCCCCCC(=O)OCC(C[N+](C)(C)C)OC(=O)CCCCCCC/C=C\CCCCCCCC` (stereo not shown) [DOTAP, 1,2-Dioleoyl-3-Trimethylammonium-Propane] was tested. Which “Luminescence / protein production in non-lung cells” value did it give?
Its value is “did not show luminescence in non-lung cells”.
